Assay results: patent publication US4067996A, “Phenylacetic acid derivatives” (Synthelabo, priority 1974, dated 1978)
Like-named read-outs stand apart in the source and are kept apart here.

How the values were obtained:
[1] = Acute toxicity in mice on oral administration; assay type: in vivo; details: mouse, in vivo, read-out: LD 50 (acute toxicity)
Procedure: (§1) The acute toxicity was studied by oral administration to CDl mice of both sexes. The 50% lethal doses (LD 50) were determined graphically.
(§2) In a second series of experiments, the experimental technique was modified slightly: the compounds studied are dispersed in olive oil instead of being dissolved in water.

cholesterol in the serum = experiment: Hypocholesterolaemic action in rats on oral administration (7 days); assay type: in vivo, male albino rats of the CDl race (Charles River); details: daily for 7 days
Procedure: (§3) The reference substances chosen were clofibrate or ethyl 2-p-chlorophenoxy-2-methyl-propionate, and halofenate or 2-acetamido-ethyl2-p-chlorophenyl-2-m-trifluoromethylphenoxy-acetate.
(§4) The hypocholesterolaemic action was determined on male albino rats of the CDl race (Charles River) weighing on average 250 g and fed normally, the rats being divided into batches each of 10 animals. Daily doses of one of the compounds studied were administered orally for 7 days. On the 8th day, the contents of cholesterol and triglycerides in the blood were determined and compared with those of animals of the untreated comparison group. In this way it was possible graphically to evaluate, for each compound, the 30% active dose (AD 30), that is to say the daily dose which causes a 30% reduction in the content of cholesterol or of triglycerides in the serum.
(§5) *AD 30 = daily dose which causes a 30% reduction in the content of
as §2

[2] = test system: triglycerides in the serum; experiment: Hypolipaemic activity (triglycerides) in rats on oral administration (7 days); assay type: in vivo, male albino rats of the CDl race (Charles River); details: daily for 7 days
Procedure: as §3, §4, §5, §2

CDl mice = experiment: Acute toxicity in mice on oral administration; assay type: in vivo; details: Table III, second series, dispersed in olive oil
Procedure: as §1, §2

[3] = test system: content of lipids (triglycerides and cholesterol) in the blood; experiment: Hypolipaemic and hypocholesterolaemic effect compared with reference substances (summary); assay type: in vivo, rats
Procedure: as §3, §4, §2

[4] = Table II, first series (dissolved in water)
[5] = Table III, second series, dispersed in olive oil

Row | Structure (SMILES) | LD50 ([1]; Table II, first series) | AD 30, cholesterol (daily dose which causes a 30% reduction in serum cholesterol) (cholesterol in the serum; [4]) | AD 30, triglycerides (daily dose which causes a 30% reduction in serum triglycerides) [2, 4] | LD 50 (acute toxicity) (CDl mice) | AD 30, cholesterol (daily dose which causes a 30% reduction in serum cholesterol) (cholesterol in the serum; [5]) | AD 30, triglycerides (daily dose which causes a 30% reduction in serum triglycerides) [2, 5] | times more active than clofibrate ([3]; relative to clofibrate) | times more active than halofenate ([3]; relative to halofenate) | LD50 [1, 5]
1 | CCOC(=O)C(C)(C)Oc1ccc(Cl)cc1 [Clofibrate, ethyl 2-p-chlorophenoxy-2-methyl-propionate, reference compound] | 1300 mg/kg | 160 mg/kg | 200 mg/kg | – | – | – | – | – | –
2 | CC(=O)NCCOC(=O)C(Oc1cccc(C(F)(F)F)c1)c1ccc(Cl)cc1 (centres unmarked) [Halofenate, 2-acetamido-ethyl2-p-chlorophenyl-2-m-trifluoromethylphenoxy-acetate, reference compound] | 1800 mg/kg | 70 mg/kg | 50 mg/kg | – | – | – | – | – | –
3 | CC(=O)NCCOC(=O)C(Oc1ccc(F)c(C(F)(F)F)c1)c1ccc(Cl)cc1 (centres unmarked) [SL C 149, 2-Acetylamino-ethyl 2-(4-chloro-phenyl)-2-(4-fluoro-3-trifluoromethyl-phenoxy)-acetate] | 2000 mg/kg | 17 mg/kg | 12 mg/kg | 2,000 mg/kg | 30 mg/kg | 20 mg/kg | about 15 times | four | –
4 | CCOC(=O)C(Oc1ccc(F)c(C(F)(F)F)c1)c1ccc(Cl)cc1 (centres unmarked) [SL C 150, Ethyl 2-(4-chloro-phenyl)-2-(4-fluoro-3-trifluoromethyl-phenoxy)-acetate] | > 2500 mg/kg | 20 mg/kg | 25 mg/kg | – | – | – | – | – | –
5 | O=C(O)C(Oc1ccc(F)c(C(F)(F)F)c1)c1ccc(Cl)cc1 (centres unmarked) [SL C 151, 2-(4-Chloro-phenyl)-2-(4-fluoro-3-trifluoromethyl-phenoxy)-acetic acid] | 2000 mg/kg | 50 mg/kg | 12 mg/kg | – | – | – | – | – | –
6 | NC(=O)C(Oc1ccc(F)c(C(F)(F)F)c1)c1ccc(Cl)cc1 (centres unmarked) [SL D 063] | > 2000 mg/kg | > 100 mg/kg | 20 mg/kg | – | – | – | – | – | –
7 | O=C(NCCO)C(Oc1ccc(F)c(C(F)(F)F)c1)c1ccc(Cl)cc1 (centres unmarked) [SL D 064, 2-(4-Fluoro-3-trifluoromethyl-phenoxy)-2-(4-chloro-phenyl)-N-(2-hydroxy-ethyl)-acetamide] | > 2000 mg/kg | > 100 mg/kg | 20 mg/kg | – | – | – | – | – | –
8 | O=C(OCc1cccnc1)C(Oc1ccc(F)c(C(F)(F)F)c1)c1ccc(Cl)cc1 (centres unmarked) [SL D 065] | > 2000 mg/kg | 55 mg/kg | 35 mg/kg | – | – | – | – | – | –
9 | CC(=O)NCCOC(=O)C(Oc1ccc(F)c(C(F)(F)F)c1)c1ccc(F)cc1 (centres unmarked) [SL D 097, 2-acetylamino-ethyl 2-(4-fluoro-3-trifluoromethyl-phenoxy)-2-(4-fluoro-phenyl)acetate] | > 2000 mg/kg | > 100 mg/kg | 25 mg/kg | – | – | – | – | – | –
10 | CN1CCC(OC(=O)C(Oc2ccc(F)c(C(F)(F)F)c2)c2ccc(Cl)cc2)CC1 (centres unmarked) [SL-D.123, 1-Methyl-piperidinyl-4 2-(4-fluoro-3-trifluoromethyl-phenoxy)-2-(4-chloro-phenyl)-acetate] | – | – | – | – | 50 mg/kg | 20 mg/kg | – | – | > 2000 mg/kg
11 | CN(C)C(=O)CCCOC(=O)C(Oc1ccc(F)c(C(F)(F)F)c1)c1ccc(Cl)cc1 (centres unmarked) [SL-D.126, N,N-Dimethyl-3-aminocarbonyl-propyl 2-(4-fluoro-3-trifluoromethyl-phenoxy)-2-(4-chloro-phenyl)-acetate] | – | – | – | – | 70 mg/kg | 20 mg/kg | – | – | > 2000 mg/kg
12 | CC1CC(OC(=O)C(Oc2ccc(F)c(C(F)(F)F)c2)c2ccc(Cl)cc2)CC(C)(C)C1 (centres unmarked) [SL-D.128, 3,3,5-Trimethyl-cyclohexyl-1 2-(4-fluoro-3-trifluoromethyl-phenoxy)-2-(4-chloro-phenyl)-acetate] | – | – | – | – | 80 mg/kg | 10 mg/kg | – | – | > 2000 mg/kg
